{
  "source": "patent US20020076693A1",
  "about": "“Novel cell surface receptor for HIV retroviruses, therapeutic and diagnostic uses” (priority 1997, published 2002)",
  "key": {"[1]": {"biological_target": "P30/PHAPI (Homo sapiens, UniProt P39687)", "sequence (P39687 whole entry)": "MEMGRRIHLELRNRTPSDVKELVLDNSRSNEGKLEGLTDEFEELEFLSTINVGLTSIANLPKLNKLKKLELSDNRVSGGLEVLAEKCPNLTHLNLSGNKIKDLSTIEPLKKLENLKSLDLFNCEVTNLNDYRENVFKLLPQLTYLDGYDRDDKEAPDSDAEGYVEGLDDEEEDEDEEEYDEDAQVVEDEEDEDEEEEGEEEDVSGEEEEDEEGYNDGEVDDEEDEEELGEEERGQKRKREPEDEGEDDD", "experiment": "Saturation of binding sites of P30/PHAPI"}, "[2]": {"system": "MOLT4 cells", "experiment": "FACS binding of FITC-labeled TASP after protease treatment of cells", "set-up": "species or system human", "method": "(§1) The cells were then washed twice with FACS buffer and fixed in 1% formaldehyde in FACS buffer. […] The fluorescence intensity was monitored by FACS analysis using Lysis II Software in FIGS. 3/4 and Tables 1/2, or Cell Quest™ Software (Beckton Dickinson and Apple Computer) in FIG. 5 +L.\nProtease treatment of CEM and MOLT cells was essentially as described previously (Borrow et al., 1992) with slight modifications. Briefly, cells were washed in PBS and in RPMI-1640 medium containing 1 mM EDTA before treatment with trypsin (Sigma; 2.5 mg/ml at 20° C. for 5 min), proteinase K (Bohringer Mannhein GmbH, Germany; 0.2 mg/ml at 37° C. for 30 min), or pronase E (Sigma, 0.1 mg/ml at 37° C. for 45 min). The reactions were stopped by 10 fold dilutions in RPMI-1640 containing 10% fetal calf serum. Cells were then washed in PBS and in FACS buffer, and processed for FACS analysis.\nThe expression of CD4 and CD26 in control cells (not treated with different proteases) was considered as 100%. Consequently the % positive cells after protease treatment were estimated by comparison with the untreated cells."}, "[3]": {"system": "HIV-1 Bal", "experiment": "Infection of human monocyte-derived macrophages by HIV-1 (p24)", "assay_type": "cell-based", "conditions": "HIV-1 BaL (TASP also Ada); p24 in supernatant", "method": "Macrophages are infected with BaL or Ada HIV-1 viruses, in the presence of 2 μM, 1 μM or 0.1 μM of 5[Kψ (CH2N)PR]-TASP. Cells are preincubated during 30 min at 4° C. in the presence of 5[Kψ (CH2N)PR]-TASP before adding the virus. Every 3 days interval, the whole culture supernatant is collected and is replaced by RPMI 1640 culture medium supplemented with 20% fetal calf serum (FCS), 1% antibiotics, 1% glutamine, in addition to 5[Kψ (CH2N)PR]-TASP that is kept present in the culture medium until day 14 after in vitro infection. Virus production is quantitated by titration of p24 protein in the culture supernatant at different times (days) after in vitro infection. Each value represented in the graphs represents the mean of two test samples.\nMacrophages are infected by the BaL VIH-1 virus in the presence of 100 μg/ml of anti-P95, anti-P40 and anti-P30 antibody. Cells are preincubated during 30 min at 4° C. in the presence of each kind of antibody before adding the virus. The antibodies are kept present in the culture medium during the whole infection period of time. […]\nCells are preincubated during 30 min at 4° C. in the presence of the different molecules either alone or in association before adding the virus. […] Virus production is quantitated by titration of p24 protein in the culture supernatant at different times (days) after in vitro infection. […]"}, "[4]": {"system": "CEM cells", "experiment": "FACS binding of labeled TASP constructs to the cell-surface ligand", "set-up": "species or system human", "conditions": "biotin-labeled constructs, dose for 50% labeling, read-out: Affinity to bind TASP-ligand (EC50), 50% effective dose", "text": "as §1"}, "[5]": {"system": "HIV-1 Ada-M", "experiment": "Infection of PBMC by HIV-1 Ada-M (p24)", "assay_type": "cell-based", "conditions": "p24 at 6 days post-infection", "text": "Virus production was monitored by the concentration of p24 in the culture medium at 6 days post-infection (3 +L0)."}, "[6]": {"system": "HIV-1 ELI, Ba-L, SF162, UGO29A, and Retrovir resistant isolate", "experiment": "Infection of PBMC by different HIV-1 isolates (p24 in culture medium)", "assay_type": "cell-based", "conditions": "p24 at 6 days post-infection, range over the isolates, read-out: IC50 values, virus production in PBMC", "text": "Virus production was monitored by the concentration of p24 in the culture medium at 6 days post-infection (3 +L0). The HIV-1 isolates were:\nVirus production was monitored by the concentration of p24 in the culture medium at 7 days post-infection."}, "[7]": {"system": "HIV-1 JRCSF", "experiment": "HIV entry into HeLa P4-C5 cells (β-galactosidase), HIV-1 JRCSF", "assay_type": "cell-based", "conditions": "HeLa P4-C5, HIV-1 JRCSF; read-out: IC50, inhibition of HIV entry"}, "[8]": {"biological_target": "CD4 (Homo sapiens, UniProt P01730)", "experiment": "BIAcore biosensor binding to soluble CD4", "conditions": "binding protein soluble recombinant CD4, BIAcore"}, "[9]": {"biological_target": "P40/PHAPII (Homo sapiens, UniProt Q01105)", "sequence (Q01105 1-277 isoform Q01105-2)": "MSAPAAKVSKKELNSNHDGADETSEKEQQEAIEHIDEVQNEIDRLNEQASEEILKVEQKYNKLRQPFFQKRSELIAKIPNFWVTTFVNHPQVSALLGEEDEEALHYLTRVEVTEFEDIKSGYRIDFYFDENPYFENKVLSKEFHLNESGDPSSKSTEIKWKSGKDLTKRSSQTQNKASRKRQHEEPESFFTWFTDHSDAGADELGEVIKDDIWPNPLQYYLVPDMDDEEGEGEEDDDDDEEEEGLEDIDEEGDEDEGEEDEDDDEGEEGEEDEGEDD", "experiment": "Saturation of binding sites of P40/PHAPII"}, "[10]": {"system": "HIV-1 Lai", "experiment": "HIV entry into HeLa P4 / P4-C5 cells (β-galactosidase activity), HIV-1 Lai", "assay_type": "cell-based"}, "[11]": {"system": "VSV/HIV", "assay_type": "cell-based"}, "[12]": {"system": "HIV-1 AZT resistant, Saquinavir resistant, Nevirapine resistant", "experiment": "Entry of HIV-1 isolates resistant to antiviral drugs into HeLa cells (β-galactosidase)", "assay_type": "cell-based", "conditions": "heparin 5 mg/ml", "method": "HIV entry and replication, results in the activation of the HIV LTR, leading to the expression of the lacZ gene. Therefore, at 24 and 48 hours post-infection, the β-galactosidase activity could be measured in cell extracts directly. Consequently, this latter technique could be used to monitor HIV entry into cells. The HIV dose used corresponded to the amount of virus containing 20-40 ng/ml of p24.\nIn these experiments, the background values of the β-galactosidase activity were assesed by the samples incubated with the a-CD4 mAb. Furthermore, the effect of heparin (5 mg/ml) was investigated."}},
  "data": [
    {"substance": "5[Kψ(CH2N)PR]-TASP", "values": [
      {"measurement": "concentration for 100% saturation of the binding sites", "setting": "[1]", "value": 8, "unit": "µM"},
      {"measurement": "Cell-surface expression (% positive cells), TASP-Ligand", "setting": "[2]; after Pronase E treatment", "value": 8, "unit": "%"},
      {"measurement": "Cell-surface expression (% positive cells), TASP-Ligand", "setting": "[2]; after Proteinase K treatment", "value": 15, "unit": "%"},
      {"measurement": "Cell-surface expression (% positive cells), TASP-Ligand", "setting": "[2]; after Trypsin treatment", "value": 92, "unit": "%"},
      {"measurement": "effect on infection of human macrophages by HIV-1", "setting": "[3]", "value": "inhibits, in a dose-dependent manner"},
      {"measurement": "EC50", "setting": "[4]", "value": 150, "unit": "nM"},
      {"measurement": "effect on HIV-1 Ada-M infection of PBMC", "setting": "[5]", "value": "no effect"},
      {"measurement": "IC50", "setting": "[6]", "value": "50 to 500", "unit": "nM"},
      {"measurement": "IC50", "setting": "[7]", "value": 300, "unit": "nM"},
      {"measurement": "ka (association rate constant)", "setting": "[8]; listed as 5(KΨ(CH2N)PR)TASP", "value": "nb^b"},
      {"measurement": "ka (association rate constant)", "setting": "[8]; listed as 5[KΨ(CH2N)PR]-TASP", "value": "No binding"},
      {"measurement": "concentration for 100% saturation of the binding sites", "setting": "[9]", "value": 4, "unit": "µM"},
      {"measurement": "inhibition of viral entry monitored by β-galactosidase activity in HeLa/CD4^+ cells", "setting": "[10]; 5-10 μM", "value": "at least 90%"},
      {"measurement": "inhibition of HIV-1 LAI infection in HeLa cells", "setting": "[10]; 37° C. in culture medium, 0.1-1 μM", "value": "more than 90%"},
      {"measurement": "effect on VSV-HIV pseudotyped virus entry and replication", "setting": "[11]", "value": "had no effect"},
      {"measurement": "effect on entry of drug-resistant HIV-1 isolates", "setting": "[12]", "value": "Inhibits Entry"}
    ]}
  ]
}
